Laboratory results reported in US9650340B2, “5-fluoro-N-(pyridin-2-yl)pyridin-2-amine derivatives containing a sulfoximine group” (BAYER PHARMA AKTIENGESELLSCHAFT, priority 2012, dated 2017).

Tests used:
[1] = test system: B16F10, mouse melanoma cells; experiment: Proliferation assay, B16F10 (crystal violet); assay type: cell-based; details: B16F10, 4 days; read-out: Inhibition of B16F10 cell proliferation IC50
Protocol: (§1) Cultivated tumour cells (HeLa, human cervical tumour cells, ATCC CCL-2; NCI-H460, human non-small cell lung carcinoma cells, ATCC HTB-177; A2780, human ovarian carcinoma cells, ECACC #93112519; DU 145, hormone-independent human prostate carcinoma cells, ATCC HTB-81; HeLa-MaTu-ADR, multidrug-resistant human cervical carcinoma cells, EPO-GmbH Berlin; Caco-2, human colorectal carcinoma cells, ATCC HTB-37; B16F10, mouse melanoma cells, ATCC CRL-6475) were plated at a density of 5,000 cells/well (DU145, HeLa-MaTu-ADR), 3,000 cells/well (NCI-H460, HeLa), 2,500 cells/well (A2780), 1,500 cells/well (Caco-2), or 1,000 cells/well (B16F10) in a 96-well multititer plate in 200 μL of their respective growth medium supplemented 10% fetal calf serum. After 24 hours, the cells of one plate (zero-point plate) were stained with crystal violet (see below), while the medium of the other plates was replaced by fresh culture medium (200 μl), to which the test substances were added in various concentrations (0 μM, as well as in the range of 0.001-10 μM; the final concentration of the solvent dimethyl sulfoxide was 0.5%). The cells were incubated for 4 days in the presence of test substances. Cell proliferation was determined by staining the cells with crystal violet: the cells were fixed by adding 20 μl/measuring point of an 11% glutaric aldehyde solution for 15 minutes at room temperature. After three washing cycles of the fixed cells with water, the plates were dried at room temperature. The cells were stained by adding 100 μl/measuring point of a 0.1% crystal violet solution (pH 3.0). After three washing cycles of the stained cells with water, the plates were dried at room temperature. The dye was dissolved by adding 100 μl/measuring point of a 10% acetic acid solution. The extinction was determined by photometry at a wavelength of 595 nm. The change of cell number, in percent, was calculated by normalization of the measured values to the extinction values of the zero-point plate (=0%) and the extinction of the untreated (0 μm) cells (=100%). The IC50 values (inhibitory concentration at 50% of maximal effect) were determined by means of a 4 parameter fit. Non-adherent MOLM-13 human acute myeloid leukemia cells (DSMZ ACC 554) were seeded at a density of 5,000 cells/well in a 96-well multititer plate in 100 μL of growth medium supplemented 10% fetal calf serum. After 24 hours, cell viability of one plate (zero-point plate) was determined with the Cell Titre-Glo Luminescent Cell Viability Assay (Promega), while 50 μL of test compound containing medium was added to the wells of the other plates (final concentrations in the range of 0.001-10 μM and DMSO controls; the final concentration of the solvent dimethyl sulfoxide was 0.5%). Cell viability was assessed after 72-hour exposure with the Cell Titre-Glo Luminescent Cell Viability Assay (Promega).

[2] = test system: Caco-2, human colorectal carcinoma cells; experiment: Proliferation assay, Caco-2 (crystal violet); assay type: cell-based; details: Caco-2, 4 days; read-out: Inhibition of Caco-2 cell proliferation IC50
Protocol: as §1

CDK9/CycT1 = target: T1, CDK9/CycT1 (Homo sapiens, UniProt P50750); experiment: CDK9/CycT1 high ATP kinase assay (TR-FRET, 2 mM ATP); assay type: biochemical; details: Method 1b
T1 construct: Recombinant full-length His-tagged human CDK9 and CycT1; His; purchased Invitrogen PV4131; host or cells: insect cells
T1 sequence (P50750 whole entry): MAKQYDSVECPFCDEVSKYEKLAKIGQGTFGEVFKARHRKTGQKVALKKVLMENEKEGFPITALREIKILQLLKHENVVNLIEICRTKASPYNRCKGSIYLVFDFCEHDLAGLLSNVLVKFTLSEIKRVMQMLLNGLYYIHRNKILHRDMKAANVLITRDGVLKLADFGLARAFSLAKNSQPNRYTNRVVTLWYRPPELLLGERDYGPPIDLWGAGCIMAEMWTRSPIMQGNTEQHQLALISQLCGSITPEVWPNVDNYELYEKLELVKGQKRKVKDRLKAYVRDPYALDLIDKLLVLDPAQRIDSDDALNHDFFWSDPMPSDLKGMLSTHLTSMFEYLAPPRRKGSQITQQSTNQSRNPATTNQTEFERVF
T1 sequence (O60563 whole entry partner): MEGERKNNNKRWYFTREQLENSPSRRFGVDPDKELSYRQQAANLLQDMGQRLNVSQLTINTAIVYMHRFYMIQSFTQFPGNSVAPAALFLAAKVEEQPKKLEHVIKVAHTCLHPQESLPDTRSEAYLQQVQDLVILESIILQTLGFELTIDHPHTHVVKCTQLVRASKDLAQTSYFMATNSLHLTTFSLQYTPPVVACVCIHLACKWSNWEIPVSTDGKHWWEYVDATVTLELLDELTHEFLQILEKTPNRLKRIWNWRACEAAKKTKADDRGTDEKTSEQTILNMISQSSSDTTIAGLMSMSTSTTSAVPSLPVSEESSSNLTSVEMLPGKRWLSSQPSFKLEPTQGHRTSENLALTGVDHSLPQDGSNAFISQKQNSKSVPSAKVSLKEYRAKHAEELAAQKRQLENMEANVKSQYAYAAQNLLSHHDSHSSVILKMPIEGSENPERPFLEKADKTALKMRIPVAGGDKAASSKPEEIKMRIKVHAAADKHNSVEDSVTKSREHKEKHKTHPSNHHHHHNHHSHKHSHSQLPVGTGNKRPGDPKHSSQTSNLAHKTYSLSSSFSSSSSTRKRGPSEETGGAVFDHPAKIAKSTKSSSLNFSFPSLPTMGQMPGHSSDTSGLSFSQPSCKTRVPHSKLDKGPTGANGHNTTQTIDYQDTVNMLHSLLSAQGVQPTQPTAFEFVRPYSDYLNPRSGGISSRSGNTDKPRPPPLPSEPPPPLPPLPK
Protocol: 1b. CDK9/CyeT1 High ATP Kinase Assay
CDK9/CycT1-inhibitory activity of compounds of the present invention at a high ATP concentration after preincubation of enzyme and test compounds was quantified employing the CDK9/CycT1 TR-FRET assay as described in the following paragraphs.
Recombinant full-length His-tagged human CDK9 and CycT1, expressed in insect cells and purified by Ni-NTA affinity chromatography, were purchase from Invitrogen (Cat. No PV4131). As substrate for the kinase reaction biotinylated peptide biotin-Ttds-[…] (C-terminus in amid form) was used which can be purchased e.g. form the company JERINI peptide technologies (Berlin, Germany). For the assay 50 nl of a 100 fold concentrated solution of the test compound in DMSO was pipetted into a black low volume 384 well microtiter plate (Greiner Bio-One, Frickenhausen, Germany), 2 μl of a solution of CDK9/CycT1 in aqueous assay buffer [50 mM Tris/HCl pH 8.0, 10 mM MgCl2, 1.0 mM dithiothreitol, 0.1 mM sodium ortho-vanadate, 0.01% (v/v) Nonidet-P40 (Sigma)] were added and the mixture was incubated for 15 min at 22° C. to allow pre-binding of the test compounds to the enzyme before the start of the kinase reaction. Then the kinase reaction was started by the addition of 3 μl of a solution of adenosine-tri-phosphate (ATP, 3.3 mM=>final conc. in the 5 μl assay volume is 2 mM) and substrate (1.67 μM=>final conc. in the 5 μl assay volume is 1 μM) in assay buffer and the resulting mixture was incubated for a reaction time of 25 min at 22° C.
The resulting mixture was incubated 1 h at 22° C. to allow the formation of complex between the phosphorylated biotinylated peptide and the detection reagents. Subsequently the amount of phosphorylated substrate was evaluated by measurement of the resonance energy transfer from the Eu-chelate to the streptavidine-XL. Therefore, the fluorescence emissions at 620 nm and 665 nm after excitation at 350 nm was measured in a HTRF reader, e.g. a Rubystar (BMG Labtechnologies, Offenburg, Germany) or a Viewlux (Perkin-Elmer). The ratio of the emissions at 665 nm and at 622 nm was taken as the measure for the amount of phosphorylated substrate.

[3] = test system: HeLa-MaTu-ADR, multidrug-resistant human cervical carcinoma cells; experiment: Proliferation assay, HeLa-MaTu-ADR (crystal violet); assay type: cell-based; details: 4 days, read-out: Inhibition of HeLa-MaTu-ADR cell proliferation IC50
Protocol: as §1

| Structure (SMILES) | IC50 [1] [nM] | IC50 [2] [nM] | IC50 (CDK9/CycT1) [nM] | IC50 [3] [nM] |
| --- | --- | --- | --- | --- |
| COc1cc(F)ccc1-c1cc(Nc2cc(CS(C)(=N)=O)cc(C(F)(F)F)n2)ncc1F (single isomer, unassigned; (-)) [Example 23, (−)-5-Fluoro-4-(4-fluoro-2-methoxyphenyl)-N-{4-[(S-methylsulfonimidoyl)methyl]-6-(trifluoromethyl)pyridin-2-yl}pyridin-2-amine] | 47 | 34 | 2 | 30 |
| COc1cc(F)ccc1-c1cc(Nc2cc(CS(C)(=O)=NC(=O)C(F)(F)F)cc(C(F)(F)F)n2)ncc1F (single isomer, unassigned; (-)) [Example 25, (−)-2,2,2-Trifluoro-N-[{[2-{[5-fluoro-4-(4-fluoro-2-methoxyphenyl)pyridin-2-yl]amino}-6-(trifluoromethyl)-pyridin-4-yl]methyl}(methyl)oxido-λ^6-sulfanylidene]acetamide] | 50 | 45 | 13 | 30 |
| CCOc1cc(F)ccc1-c1cc(Nc2cc(CS(C)(=N)=O)cc(F)n2)ncc1F (single isomer, unassigned; (-)) [Example 29, (−)-4-(2-Ethoxy-4-fluorophenyl)-5-fluoro-N-{6-fluoro-4-[(S-methylsulfonimidoyl)methyl]pyridin-2-yl}pyridin-2-amine] | 110 | 100 | 4 | 81 |
| COc1cc(F)ccc1-c1cc(Nc2cc(CS(C)(=N)=O)cc(C)n2)ncc1F (single isomer, unassigned; (-)) [Example 33, (−)-5-Fluoro-4-(4-fluoro-2-methoxyphenyl)-N-{6-methyl-4-[(S-methylsulfonimidoyl)methyl]pyridin-2-yl}pyridin-2-amine] | 54 | 30 | 1 | 27 |
